Laboratory results as given in patent publication US20220339160A1, “ADENOSINE RECEPTOR ANTAGONIST” (priority 2019, published 2022).
Where two headings read alike, the source gives them in different places.

Experiments:
A2B receptor = target: T1, A2B receptor (Homo sapiens, UniProt P29275); experiment: cell-based
T1 sequence (P29275 1-332): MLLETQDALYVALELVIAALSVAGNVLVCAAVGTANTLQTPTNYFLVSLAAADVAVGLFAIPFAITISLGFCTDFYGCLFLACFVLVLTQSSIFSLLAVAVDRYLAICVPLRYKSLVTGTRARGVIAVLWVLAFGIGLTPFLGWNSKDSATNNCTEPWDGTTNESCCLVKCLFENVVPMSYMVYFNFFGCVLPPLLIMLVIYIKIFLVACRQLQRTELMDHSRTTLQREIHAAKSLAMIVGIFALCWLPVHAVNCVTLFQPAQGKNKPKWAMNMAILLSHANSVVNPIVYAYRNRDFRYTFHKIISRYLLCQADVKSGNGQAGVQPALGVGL
Experimental: (§1) A2a/A2B Receptor Antagonist Functional Assay Test:
The A2A cell line was derived from PerkinElmer (Product ID: ES-011-C); the A2B cell line was derived from PerkinElmer (Product ID: ES-013-C). […] The corresponding amount of 5′-N-ethylcarboxamidoadenosine at EC80 activation concentration was transferred to each test well, and incubated for another 30 minutes at 37° C., 5% CO2, 95% humidity, then Eu-cAMP tracer working solution and Ulight-anti-cAMP working solution were added to the cell culture plate at 5 uL/well in sequence, and the cell plate fluorescence was read with Envision (excitation wavelength: 320 nm, emission wavelength: 665 nm and 615 nm). The corresponding inhibition rate in each well was obtained according to the following formula, and a sigmoidal dose-inhibition rate curve was plotted using a non-linear regression model to calculate the IC50 value.

A2A receptor = A2A receptor (Homo sapiens, UniProt P29274); experiment: A2A receptor antagonist functional assay (cAMP, A2A cell line); type: cell-based
Chain of A2A receptor (P29274 whole entry): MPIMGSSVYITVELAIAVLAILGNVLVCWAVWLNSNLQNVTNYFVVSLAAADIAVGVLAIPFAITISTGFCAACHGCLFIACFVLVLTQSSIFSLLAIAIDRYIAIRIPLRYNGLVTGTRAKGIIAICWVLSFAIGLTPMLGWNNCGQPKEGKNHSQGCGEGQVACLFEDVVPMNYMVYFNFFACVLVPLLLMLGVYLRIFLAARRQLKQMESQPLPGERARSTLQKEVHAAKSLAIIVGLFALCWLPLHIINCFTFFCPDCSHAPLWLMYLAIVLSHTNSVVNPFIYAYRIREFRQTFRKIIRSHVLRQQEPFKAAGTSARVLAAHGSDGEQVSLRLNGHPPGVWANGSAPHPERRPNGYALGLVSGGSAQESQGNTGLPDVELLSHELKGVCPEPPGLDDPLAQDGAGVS
Experimental: as §1
The A2A cell line was derived from PerkinElmer (Product ID: ES-011-C); the A2B cell line was derived from PerkinElmer (Product ID: ES-013-C). The experimental procedure was referred to ACS Medicinal Chemistry Letters (2011) 2, 213-218; the specific test was completed by Pharmaron Beijing Co., Ltd. with the following steps: 10 nL of compound stock in DMSO (10 mM) followed by 10 μL of A2A or A2B cell suspension (30000 cells/mL) were transferred to assay wells of a 384-well plate at room temperature and incubated for 20 minutes at room temperature. The corresponding amount of 5′-N-ethylcarboxamidoadenosine at EC80 activation concentration was transferred to each test well, and incubated for another 30 minutes at 37° C., 5% CO2, 95% humidity, then Eu-cAMP tracer working solution and Ulight-anti-cAMP working solution were added to the cell culture plate at 5 uL/well in sequence, and the cell plate fluorescence was read with Envision (excitation wavelength: 320 nm, emission wavelength: 665 nm and 615 nm). The corresponding inhibition rate in each well was obtained according to the following formula, and a sigmoidal dose-inhibition rate curve was plotted using a non-linear regression model to calculate the IC50 value.

[1] = A2A cell line (PerkinElmer ES-011-C), 5'-N-ethylcarboxamidoadenosine at EC80, cAMP readout, read-out: A2A Antagonistic function IC50
[2] = A2B cell line (PerkinElmer ES-013-C), 5'-N-ethylcarboxamidoadenosine at EC80, cAMP readout, read-out: A2B Antagonistic function IC50

IC50 (A2B receptor) [nM]	IC50 (A2A receptor; [1]) [nM]	IC50 (A2A receptor; read-out: A2A Antagonistic function IC50) [nM]	SMILES	IC50 (A2A receptor) [nM]	IC50 (A2B receptor; [2]) [nM]
25	1.8	–	COCc1cccc(Cc2cnn3c(-c4ccc(C)o4)nc(N)nc23)n1 [Compound 2]	–	–
–	–	–	COCc1cccc(Cc2cnn3c(-c4cccs4)nc(N)nc23)n1 [Compound 3]	96	–
–	–	–	COCc1cccc(Cc2cnn3c(-n4ccc(C)n4)nc(N)nc23)n1 [Compound 4]	17	–
16.7	5.3	–	Cc1ccc(-c2nc(N)nc3c(Cc4cccc(CO)n4)cnn23)o1 [Compound 5]	–	–
–	–	–	Cc1ccc(-c2nc(N)nc3c(Cc4cccc(CBr)n4)cnn23)o1 [Compound 6]	10.2	–
103	–	7.1	COCCOCc1cccc(Cc2cnn3c(-c4ccc(C)o4)nc(N)nc23)n1 [Compound 7]	–	–
–	–	–	COCCNCc1cccc(Cc2cnn3c(-c4ccc(C)o4)nc(N)nc23)n1 [Compound 8]	31	117
–	–	–	Cc1ccc(-c2nc(N)nc3c(Cc4cccc(COC5CC5)n4)cnn23)o1 [Compound 9]	3.6	51
–	–	–	Cc1ccc(-c2nc(N)nc3c(Cc4ccc(F)cc4F)cnn23)o1 [Compound 10]	5	16.4
–	–	–	Cc1ccc(-c2nc(N)nc3c(Cc4ccc(F)cc4C)cnn23)o1 [Compound 11]	39	420
–	–	–	Cc1ccc(-c2nc(N)nc3c(Cc4c(F)cc(F)cc4F)cnn23)o1 [Compound 12]	1.5	3.8
–	–	–	Cc1ccc(-c2nc(N)nc3c(CC4CCCCC4)cnn23)o1 [Compound 13]	5.7	–
–	–	–	Cc1ccc(-c2nc(N)nc3c(CC4CCCC4)cnn23)o1 [Compound 14]	10.4	–
–	–	–	Cc1ccc(-c2nc(N)nc3c(CC4CCC4)cnn23)o1 [Compound 15]	16	–
–	–	–	COc1cccc(Cc2cnn3c(-c4ccc(C)o4)nc(N)nc23)n1 [Compound 16]	2.3	18.6
–	–	–	Cc1ccc(-c2nc(N)nc3c(Cc4cccc(CO[C@H]5CCOC5)[n+]4[O-])cnn23)o1 [Compound 17]	90	1030

IC50 (A2B receptor) [nM]	IC50 (A2A receptor; [1]) [nM]	IC50 (A2A receptor; read-out: A2A Antagonistic function IC50) [nM]	SMILES	IC50 (A2A receptor) [nM]	IC50 (A2B receptor; [2]) [nM]
108	9.1	–	Cc1ccc(-c2nc(N)nc3c(Cc4cccc(CO[C@H]5CCOC5)n4)cnn23)o1 [Compound 18]	–	–
–	–	–	COCCNc1cccc(Cc2cnn3c(-c4ccc(C)o4)nc(N)nc23)n1 [Compound 21]	4.7	36
–	–	–	Cc1ccc(-c2nc(N)nc3c(Cc4cccc(N)n4)cnn23)o1 [Compound 22]	5.8	1.6
–	–	–	Nc1cccc(Cc2cnn3c(-c4ccco4)nc(N)nc23)n1 [Compound 23]	46	13
–	–	–	Cc1ccc(-c2nc(N)nc3c(Cc4cccc(N)c4)cnn23)o1 [Compound 24]	3	7.9
–	–	–	Nc1cccc(Cc2cnn3c(-c4ccco4)nc(N)nc23)c1 [Compound 25]	35	60
–	–	–	Cc1ccc(-c2nc(N)nc3c(Cc4ccc(N)cc4)cnn23)o1 [Compound 26]	17.4	2.7
–	–	–	Cc1ccc(-c2nc(N)nc3c(Cc4ccccc4N)cnn23)o1 [Compound 27]	1.9	9.7
–	–	–	Cc1ccc(-c2nc(N)nc3c(Cc4cc(N)c(F)cc4F)cnn23)o1 [Compound 28]	1.6	7.7
–	–	–	Cc1ccc(-c2nc(N)nc3c(Cc4ccc(N)c(C)c4)cnn23)o1 [Compound 29]	5.5	15.3
–	–	–	Cc1ccc(-c2nc(N)nc3c(Cc4ccc(N)c(C)c4)c(C)nn23)o1 [Compound 30]	5	–
–	–	–	Cc1ccc(N)c(Cc2cnn3c(-c4ccc(C)o4)nc(N)nc23)c1 [Compound 44]	6.2	155
–	–	–	Cc1ccc(-c2nc(N)nc3c(Cc4cccc(N)c4)c(C)nn23)o1 [Compound 45]	1.9	6.2
–	–	–	Cc1ccc(-c2nc(N)nc3c(Cc4cccc(N)c4)c(Cl)nn23)o1 [Compound 46]	1.5	4.6
–	–	–	Cc1ccc(-c2nc(N)nc3c(Cc4cccc(N)c4)c(F)nn23)o1 [Compound 47]	1.4	4
–	–	–	Cn1ccc(-c2nc(N)nc3c(Cc4cccc(N)c4)cnn23)n1 [Compound 48]	29.1	83.5

SMILES	IC50 (A2B receptor) [nM]	IC50 (A2A receptor; [1]) [nM]	IC50 (A2A receptor; read-out: A2A Antagonistic function IC50) [nM]	IC50 (A2A receptor) [nM]	IC50 (A2B receptor; [2]) [nM]
Cc1ccc(-c2nc(N)nc3c(Cc4ccc(F)cc4)cnn23)o1 [Compound 1]	16	–	–	3.3	–
Cc1ccc(-c2nc(N)nc3c(Cc4cccc(C(C)(C)O)n4)cnn23)o1 [Compound 19]	70.5	–	–	1.7	–
Cc1ccc(-c2nc(N)nc3c(Cc4cccc(NCc5ccccc5)n4)cnn23)o1 [Compound 20]	26	–	–	5.5	–
